Assay type in all cases: in vivo
Experiment [1] concerns two spotted spidermite (Tetranychus urticae). The experiment in a line: Tetranychus urticae spray test, OP-resistant. The text has this: (§1) Emulsifier: alkylaryl polyglycol ether
The test system of experiment [2] is green peach aphid (Myzus persicae). The experiment is described as follows: Myzus persicae spray test (Chinese cabbage leaf disks).
Description: as §1
100% means all aphids have been killed; 0% means none of the aphids have been killed.

The test system of experiment [3] is fall armyworm larvae (Spodoptera frugiperda). The experiment in a line: Spodoptera frugiperda spray test.
Description: as §1

The subject of experiment [4] is mustard beetle larvae (Phaedon cochleariae). The experiment is described as follows: Phaedon cochleariae spray test. The text has this:
The fermentation product is referred to in the examples below as NRRL B-50550.
Solvent: 78.0 parts by weight of acetone

Experiment [5] relates to green peach aphid (Myzus persicae). The experiment is described as follows: Myzus persicae spray test (pepper leaves). The conditions noted are these: 0.5 ppm.

The values below come from patent publication US9192166B2, “Compositions comprising a streptomyces-based biological control agent and an insecticide” (BAYER […], priority 2013, dated 2015).

Consider `O=[N+]([O-])NC1=NCCN1Cc1ccc(Cl)nc1` [Imidacloprid], for which, in experiment [1] (2 ppm), the “Efficacy in % after 6d” value is reported as 0%. As to `CNC(=O)c1cc(Cl)cc(C)c1NC(=O)c1cc(Br)nn1-c1ncccc1Cl` [Chlorantraniliprole], in experiment [2] (3.2 ppm), the “Efficacy in % after 1d” value worked out at 0%. Further, in experiment [1] (16 ppm), the “Efficacy in % after 6d” value is 0%. `CN/C(=N\[N+](=O)[O-])NCc1cnc(Cl)s1` [Clothianidin]: in experiment [2] (0.32 ppm), the “Efficacy in % after 6d” value amounted to 0%. Turning to Spinetoram, in experiment [3] (0.64 ppm), the “Efficacy in % after 2d” value is given as 0%. In the case of `CC(c1ccc(C(F)(F)F)nc1)S(C)(=O)=NC#N` (stereo not shown) [Sulfoxaflor], the “Efficacy in % after 1d” value in experiment [2] (0.64 ppm) is listed as 0%. `CNC(=O)c1cc(C#N)cc(C)c1NC(=O)c1cc(Br)nn1-c1ncccc1Cl` [Cyantraniliprole]: the “Efficacy in % after 6d” value in experiment [4] (0.64 ppm), in experiment [2] (0.64 ppm), in experiment [2] (3.2 ppm) and in experiment [1] (80 ppm) was 0% throughout. Moreover, in experiment [2] (16 ppm), the “Efficacy in % after 1d” value was found to be 0%. With Spinosad, the “Efficacy in % after 2d” value in experiment [4] (80 ppm) was 50%. For the same compound, in experiment [3] (0.64 ppm), the “Efficacy in % after 6d” value was 0%. With `CS/C(C)=N\OC(=O)N(C)SN(C)C(=O)O/N=C(\C)SC` [Thiodicarb], the “Efficacy in % after 2d” value in experiment [3] (40 ppm) is reported as 0%. With `Cc1cc(C(F)(C(F)(F)F)C(F)(F)F)ccc1NC(=O)c1cccc(I)c1C(=O)NC(C)(C)CS(C)(=O)=O` [Flubendiamide], the “Efficacy in % after 2d” value in experiment [3] (3.2 ppm) was found to be 33%.

As to `N#C/N=C1\SCCN1Cc1ccc(Cl)nc1` [Thiacloprid], in experiment [5], the “Efficacy in % after 2d” value worked out at 40%, the “Efficacy in % after 3d” value is 20% and the “Efficacy in % after 7d” value amounted to 10%. With `CNC(=O)Oc1cc(C)c(SC)c(C)c1` [Methiocarb], the “Efficacy in % after 6d” value in experiment [2] (2000 ppm) is 0%. For `N#Cc1nn(-c2c(Cl)cc(C(F)(F)F)cc2Cl)c(N)c1[S+]([O-])C(F)(F)F` (stereo not shown) [Fipronil], the “Efficacy in % after 6d” value in experiment [3] (16 ppm) came to 0%. Regarding `Cc1cc(F)c(-n2nc(C(F)(F)F)nc2N)cc1[S+]([O-])CC(F)(F)F` (stereo not shown) [1-{2-fluoro-4-methyl-5-[(2,2,2-trifluorethyl)sulfinyl]phenyl}-3-(trifluoromethyl)-1H-1,2,4-triazol-5-amine], the “Efficacy in % after 6d” value in experiment [1] (3.2 ppm) amounted to 0%. For the compound `CC1(C)C(C=C(Cl)Cl)C1C(=O)OC(C#N)c1ccc(F)c(Oc2ccccc2)c1` (stereo not drawn) [β-Cyfluthrin, beta-Cyfluthrin], the “Efficacy in % after 6d” value in experiment [4] (1.6 ppm), in experiment [3] (1.6 ppm) and in experiment [2] (1.6 ppm) was 0% throughout. `Cc1c(F)c(F)c(COC(=O)[C@@H]2[C@H](/C=C(\Cl)C(F)(F)F)C2(C)C)c(F)c1F` (racemic) [Tefluthrin]: in experiment [4] (40 ppm), the “Efficacy in % after 2d” value came to 0%.

Regarding `CNC(=O)c1cc(C#N)cc(C)c1NC(=O)c1cc(Cn2nnc(C(F)(F)F)n2)nn1-c1ncccc1Cl` [1-(3-chloropyridin-2-yl)-N-[4-cyano-2-methyl-6-(methylcarbamoyl)phenyl]-3-{[5-(trifluoromethyl)-2H-tetrazol-2-yl]methyl}-1H-pyrazole-5-carboxamide], the “Efficacy in % after 6d” value in experiment [4] (0.128 ppm) is on record as 0%; in experiment [3] (0.64 ppm) it was 33%. Further, the “Efficacy in % after 2d” value in experiment [4] (0.64 ppm) is given as 50%.
